The values that follow come from US8754057B2, “Inhibition of apoptosis-specific eIF-5A(eIF-5A1″) with antisense oligonucleotides and siRNA as anti-inflammatory therapeutics” (Senesco Technologies, Inc., priority 2003, dated 2014).

Molecules are shown by their SMILES. Where only a bound is given, the exact number is not on record here.

In assay [1] the test system is apoptosis-specific eIF-5A and DHS. Description: Northern blot of rat corpus luteum RNA after PGF-2α. In kind it is in vivo. From the text:
[…] of total RNA isolated from rat corpus luteum at various stages of apoptosis were separated on 1% denatured formaldehyde agarose gels and immobilized on nylon membranes. The full-length rat apoptosis-specific eIF-5A cDNA (SEQ ID NO:1) labeled with ^32P-dCTP using a random primer kit (Boehringer) was used to probe the membranes 7×10^7. Alternatively, full length rat DHS cDNA (SEQ ID NO:6) labeled with ^32P-dCTP using a random primer kit (Boehringer) was used to probe the membranes (7×10^7 cpm). The membranes were washed once with 1×SSC, 0.1% SDS at room temperature and three times with 0.2×SSC, 0.1% SDS at 65° C. The membranes were dried and exposed to X-ray film overnight at −70° C.

Assay [2] deals with corpus luteum. Description: DNA laddering in rat corpus luteum after PGF-2α. The class given is in vivo. To be noted: superovulated rat corpus lutea; 0, 1, or 24 hours after injection. As for the experimental part: The degree of apoptosis was determined by DNA laddering. Genomic DNA was isolated from dispersed corpus lineal cells or from excised corpus luteum tissue using the QIAamp DNA Blood Kit (Qiagen) according to the manufacturer's instructions. Corpus luteum tissue was excised before the induction of apoptosis by treatment with PGF-2α, 1 hour and 24 hours after induction of apoptosis. The isolated DNA was end-labeled by incubating 500 ng of DNA with 0.2 μCi [α-^32P]dCTP, 1 mM Tris, 0.5 mM EDTA, 3 units of Klenow enzyme, and […] each of dATP, dGTP, and dTTP at room temperature for 30 minutes. Unincorporated nucleotides were removed by passing the sample through a 1 ml Sepadex G-50 column according to Sambrook et al. The samples were then resolved by Tris-acetate-EDTA (1.8%) gel electrophoresis. The gel was dried for 30 minutes at room temperature under vacuum and exposed to x-ray film at −80° C. for 24 hours.
In one experiment, the degree of apoptosis in superovulated rat corpus lutea was examined either 0, 1, or 24 hours after injection with PGF-2α. In the 0 hour control, the ovaries were removed without PGF-2α injection. […] In this figure, the top panel is an autoradiograph of the Northern blot probed with the ^32P-dCTP-labeled 3′-untranslated region of rat corpus luteum apoptosis-specific DHS cDNA. The lower panel is the ethidium bromide stained gel of total RNA. […]

Assay [3] deals with U937 cells. Description: Induction of macrophage differentiation in U937 cells. The class given is cell-based, human. To be noted: 100 ng/ml PMA, 48 h. As for the experimental part:
(§1) U937 cells were collected and counted 16 hours after electroporation. 200,000 cells in 1 ml of media were added to each well of 24-well plates. Macrophage differentiation was stimulated by adding phorbol 12-myristate 13-acetate (PMA; 100 ng/ml). After 48 h with PMA., >80% of the monocytes had transformed from cells in suspension (monocytes) to adherent cells (macrophages). At 48 hours the media and any non-adherent cells were removed and fresh RPMI media with 10% FBS (1 ml per well) was added. The cells were left for 24 hours in fresh media to become quiescent.

For assay [4], the system named is apoptosis-specific eIF-5A. Description: Apoptosis-specific eIF-5A expression in U937 cells with PMA or LPS. In kind it is cell-based, human. As for the experimental part: as §1
72 hours after PMA addition to U937 cells, lipopolysaccharide (LPS; 100 ng/ml; from E. coli, serotype 0111), interferonγ (IFNγ; 100 Units/ml), or a combination of LPS and IFNγ were added to the wells. Samples were collected before stimulator addition (72h), and at various times after addition as outlined in FIG. 108. To collect samples for analysis of cytokine secretion, the media from each well was transferred to clean microcentrifuge tubes and cleared of any debris by centrifugation at 13000×g for 3 mins. The media was stored at −20° C. in 200-250 μl aliquots prior to analysis. […]
The protein concentration in the cell lysates was determined by bicinchoninic acid assays (BCA) with bovine serum albumin used as the standard. […]

Assay [5] deals with apoptosis-specific eIF-5A. Nature of the assay: Apoptosis-specific eIF-5A expression in LC cells during camptothecin or TNF-α plus camptothecin treatment. The class given is cell-based, human. To be noted: LC cells #506; 50 μM camptothecin, 10 ng/ml TNF-α; 1, 4, 8, 24 hours. As for the experimental part: Lamina cribrosa cell #506 cells were seeded at 40,000 cells per well onto a 24-well plate. Three days later the LC cells were treated with either 50 μM camptothecin or 10 ng/ml TNF-α plus 50 μM camptothecin and protein lysate was harvested 1, 4, 8, and 24 hours later. An equivalent volume of DMSO was added to control cells as a vehicle control and cell lysate was harvested 1 and 24 hours later. 5 μg of protein from each sample was separated by SDS-PAGE, transferred to a PVDF membrane, and Western blot with anti-apoptosis-specific eIF-5A antibody. The bound antibody was detected by chemiluminescence and exposed to x-ray film. The membrane was then stripped and re-blotted with anti-β-actin as an internal loading control.
Protein was isolated for Western blotting from lamina cribrosa cells growing on 24-well plates by washing the cells twice in PBS (8 g/L NaCl, 0.2 g/L KCl, 1.44 g/L Na2HPO4, and 0.24 g/L KH2PO4) and then adding 50 μl of lysis buffer [2% SDS, 50 mM Tris-HCl (pH 7.4)]. The cell lysate was collected in a microcentrifuge tube, boiled for 5 minutes and stored at −20° C. until ready for use. Protein concentrations were determined using the Bicinchoninic Acid Kit (BCA; Sigma). For Western blotting, 5 μg of total protein was separated on a 12 SDS-polyacrylamide gel. The separated proteins were transferred to a polyvinylidene difluoride membrane. […]

Assay [6] has as its system lamina cribrosa cell line #506. The class given is cell-based, human. To be noted: confluent LC cells, 48 hours; 50 μM camptothecin, 10 ng/ml TNF-α; Hoescht staining. As for the experimental part: FIG. 83 is a graph showing percent apoptosis of lamina cribrosa cell line #506 in response to treatment with camptothecin and TNF-α. Lamina cribrosa cell line #506 cells were seeded at 40,000 cells per well onto an 8-well culture slide. Three days later the confluent LC cells were treated with either 10 ng/ml TNF-α, 50 μM camptothecin, or 10 ng/ml TNF-α plus 50 μM camptothecin. An equivalent volume of DMSO, a vehicle control for camptothecin, was added to the untreated control cells. The cells were stained with Hoescht 33258 48 hours after treatment and viewed by fluorescence microscopy using a UV filter. Cells with brightly stained condensed or fragmented nuclei were counted as apoptotic.
Apoptosis was induced in lamina cribrosa cells using a combination of 50 μM camptothecin (Sigma) and 10 ng/ml TNF-α (Leinco Technologies).
Since TNF-α is believed to play an important role during the glaucomatous process, the susceptibility of LC cells to the cytotoxic effects of TNF-α was examined. Confluent LC cells were exposed to either camptothecin, TNF-α, or a combination of camptothecin and TNF-α for 48 hours (FIG. 83).

Consider `CCCCC[C@H](O)/C=C/[C@@H]1[C@@H](C/C=C\CCCC(=O)O)[C@@H](O)C[C@H]1O` [PGF-2α], for which, in assay [1], the “expression of DHS” value is given as “increased substantially within 1 hour of treatment” and the “expression of apoptosis-specific eIF-5A” value is “significantly enhanced”. For the same molecule, the “laddering of low molecular weight DNA fragments” value in assay [2] was “discernible within 1 hour after induction of apoptosis and is pronounced by 24 hours”.

With `CCCCCCCCCCCCCC(=O)O[C@@H]1[C@@H](C)[C@@]2(O)[C@@H](C=C(CO)C[C@]3(O)C(=O)C(C)=C[C@@H]23)[C@@H]2C(C)(C)[C@]12OC(C)=O` [PMA, phorbol 12-myristate 13-acetate], the “monocytes transformed from cells in suspension to adherent cells (macrophages)” value in assay [3] was above 80%. Besides, the “apoptosis-specific eIF-5A expression” value in assay [4] is “upregulated”.

Take `CC[C@@]1(O)C(=O)OCc2c1cc1n(c2=O)Cc2cc3ccccc3nc2-1` [camptothecin]: the “expression of apoptosis-specific eIF-5A protein” value in assay [5] is given as “did not alter significantly”. For the same molecule, in assay [6], the “cell death of LC cells” value is “approximately 30%”.
